Test system: monocytic THP1 cells infected with HIV VSV-G pseudotyped GFP-NEF reporter virus
Test: cells
Type: cell-based
Settings: Human immunodeficiency virus 1, THP-1, 24 h

| SMILES | EC50 [nM] |
| --- | --- |
| Cc1cc(/C=C/C#N)cc(C)c1Oc1nc(NC23CC(C#N)(C2)C3)nc2c1C(C)N(c1cnn(C(F)(F)F)c1)C2=O (stereo not drawn) [Example 217, (E)-3-((4-(4-(2-cyanovinyl)-2,6-dimethylphenoxy)-5-methyl-7-oxo-6-(1-(trifluoromethyl)-1H-pyrazol-4-yl)-6,7-dihydro-5H-pyrrolo[3,4-d]pyrimidin-2-yl)amino)bicyclo[1.1.1]pentane-1-carbonitrile] | 157 |
| CCn1cc(N2C(=O)c3nc(NC45CC(C#N)(C4)C5)nc(Oc4c(C)cc(/C=C/C#N)cc4C)c3C2C)cn1 (stereo not drawn) [Example 218, (E)-3-((4-(4-(2-cyanovinyl)-2,6-dimethylphenoxy)-6-(1-ethyl-1H-pyrazol-4-yl)-5-methyl-7-oxo-6,7-dihydro-5H-pyrrolo[3,4-d]pyrimidin-2-yl)amino)bicyclo[1.1.1]pentane-1-carbonitrile] | 47.3 |
| COCCn1cc(N2C(=O)c3nc(NC45CC(C#N)(C4)C5)nc(Oc4c(C)cc(/C=C/C#N)cc4C)c3C2C)cn1 (stereo not drawn) [Example 219, (E)-3-((4-(4-(2-cyanovinyl)-2,6-dimethylphenoxy)-6-(1-(2-methoxyethyl)-1H-pyrazol-4-yl)-5-methyl-7-oxo-6,7-dihydro-5H-pyrrolo[3,4-d]pyrimidin-2-yl)amino)bicyclo[1.1.1]pentane-1-carbonitrile] | 40.7 |
| Cc1cc(/C=C/C#N)cc(C)c1Oc1nc(NC23CC(C#N)(C2)C3)nc2c1C(C)N(c1c(C)nn(C)c1C)C2=O (stereo not drawn) [Example 220, (E)-3-((4-(4-(2-cyanovinyl)-2,6-dimethylphenoxy)-5-methyl-7-oxo-6-(1,3,5-trimethyl-1H-pyrazol-4-yl)-6,7-dihydro-5H-pyrrolo[3,4-d]pyrimidin-2-yl)amino)bicyclo[1.1.1]pentane-1-carbonitrile] | 155 |
| Cc1cc(/C=C/C#N)cc(C)c1Oc1nc(NC23CC(C#N)(C2)C3)nc2c1C(C)N(c1cnn(C)c1C)C2=O (stereo not drawn) [Example 221, (E)-3-((4-(4-(2-cyanovinyl)-2,6-dimethylphenoxy)-6-(1,5-dimethyl-1H-pyrazol-4-yl)-5-methyl-7-oxo-6,7-dihydro-5H-pyrrolo[3,4-d]pyrimidin-2-yl)amino)bicyclo[1.1.1]pentane-1-carbonitrile] | 72.9 |
| Cc1cc(/C=C/C#N)cc(C)c1Oc1nc(NC23CC(C#N)(C2)C3)nc2c1C(C)N(c1cn(C)nc1C)C2=O (stereo not drawn) [Example 222, (E)-3-((4-(4-(2-cyanovinyl)-2,6-dimethylphenoxy)-6-(1,3-dimethyl-1H-pyrazol-4-yl)-5-methyl-7-oxo-6,7-dihydro-5H-pyrrolo[3,4-d]pyrimidin-2-yl)amino)bicyclo[1.1.1]pentane-1-carbonitrile] | 70.7 |
| COCn1cc(N2C(=O)c3nc(NC45CC(C#N)(C4)C5)nc(Oc4c(C)cc(/C=C/C#N)cc4C)c3C2C)cn1 (stereo not drawn) [Example 223, (E)-3-((4-(4-(2-cyanovinyl)-2,6-dimethylphenoxy)-6-(1-(methoxymethyl)-1H-pyrazol-4-yl)-5-methyl-7-oxo-6,7-dihydro-5H-pyrrolo[3,4-d]pyrimidin-2-yl)amino)bicyclo[1.1.1]pentane-1-carbonitrile] | 38.3 |
| Cc1cc(/C=C/C#N)cc(C)c1Oc1nc(NC23CC(C#N)(C2)C3)nc2c1C(C)N(c1cnn(C3CC3)c1)C2=O (stereo not drawn) [Example 224, (E)-3-((4-(4-(2-cyanovinyl)-2,6-dimethylphenoxy)-6-(1-cyclopropyl-1H-pyrazol-4-yl)-5-methyl-7-oxo-6,7-dihydro-5H-pyrrolo[3,4-d]pyrimidin-2-yl)amino)bicyclo[1.1.1]pentane-1-carbonitrile] | 51.1 |
| Cc1cc(/C=C/C#N)cc(C)c1Oc1nc(NC23CC(C#N)(C2)C3)nc2c1C(C)N(c1cnn3c1CCC3)C2=O (stereo not drawn) [Example 225, (E)-3-((4-(4-(2-cyanovinyl)-2,6-dimethylphenoxy)-6-(5,6-dihydro-4H-pyrrolo[1,2-b]pyrazol-3-yl)-5-methyl-7-oxo-6,7-dihydro-5H-pyrrolo[3,4-d]pyrimidin-2-yl)amino)bicyclo[1.1.1]pentane-1-carbonitrile] | 51.8 |
| Cc1cc(/C=C/C#N)cc(C)c1Oc1nc(NC23CC(C#N)(C2)C3)nc2c1C(C)N(c1cnn(C(C)C)c1)C2=O (stereo not drawn) [Example 226, (E)-3-((4-(4-(2-cyanovinyl)-2,6-dimethylphenoxy)-6-(1-isopropyl-1H-pyrazol-4-yl)-5-methyl-7-oxo-6,7-dihydro-5H-pyrrolo[3,4-d]pyrimidin-2-yl)amino)bicyclo[1.1.1]pentane-1-carbonitrile] | 84.4 |
| Cc1cc(/C=C/C#N)cc(C)c1Oc1nc(NC23CC(C#N)(C2)C3)nc2c1C(C)N(c1cnn(C3CCC3)c1)C2=O (stereo not drawn) [Example 227, (E)-3-((4-(4-(2-cyanovinyl)-2,6-dimethylphenoxy)-6-(1-cyclobutyl-1H-pyrazol-4-yl)-5-methyl-7-oxo-6,7-dihydro-5H-pyrrolo[3,4-d]pyrimidin-2-yl)amino)bicyclo[1.1.1]pentane-1-carbonitrile] | 115 |
| Cc1cc(/C=C/C#N)cc(C)c1Oc1nc(NC23CC(C#N)(C2)C3)nc2c1[C@H](C)N(c1cn[nH]c1)C2=O [Example 228, (S,E)-3-((4-(4-(2-cyanovinyl)-2,6-dimethylphenoxy)-5-methyl-7-oxo-6-(1H-pyrazol-4-yl)-6,7-dihydro-5H-pyrrolo[3,4-d]pyrimidin-2-yl)amino)bicyclo[1.1.1]pentane-1-carbonitrile] | 72 |
| Cc1cc(/C=C/C#N)cc(C)c1Oc1nc(NC23CC(C#N)(C2)C3)nc2c1C(O)(C(F)F)NC2=O (stereo not drawn) [Example 229, (E)-3-((4-(4-(2-cyanovinyl)-2,6-dimethylphenoxy)-5-(difluoromethyl)-5-hydroxy-7-oxo-6,7-dihydro-5H-pyrrolo[3,4-d]pyrimidin-2-yl)amino)bicyclo[1.1.1]pentane-1-carbonitrile] | 123 |
| Cc1cc(/C=C/C#N)cc(C)c1Oc1nc(NC23CC(C#N)(C2)C3)nc2c1C(C)(C)N(c1cnn(C)c1)C2=O [Example 230, (E)-3-((4-(4-(2-cyanovinyl)-2,6-dimethylphenoxy)-5,5-dimethyl-6-(1-methyl-1H-pyrazol-4-yl)-7-oxo-6,7-dihydro-5H-pyrrolo[3,4-d]pyrimidin-2-yl)amino)bicyclo[1.1.1]pentane-1-carbonitrile] | 116 |
| Cc1cc(/C=C/C#N)cc(C)c1Oc1nc(NC23CC(C#N)(C2)C3)nc2nn(-c3ccn(C)n3)cc12 [Example 231, (E)-3-((4-(4-(2-cyanovinyl)-2,6-dimethylphenoxy)-2-(1-methyl-1H-pyrazol-3-yl)-2H-pyrazolo[3,4-d]pyrimidin-6-yl)amino)bicyclo[1.1.1]pentane-1-carbonitrile] | 31.1 |
| Cc1cc(/C=C/C#N)cc(C)c1Oc1nc(NC23CC(C#N)(C2)C3)nc2nn(-c3cnn(C)c3)cc12 [Example 232, (E)-3-((4-(4-(2-cyanovinyl)-2,6-dimethylphenoxy)-2-(1-methyl-1H-pyrazol-4-yl)-2H-pyrazolo[3,4-d]pyrimidin-6-yl)amino)bicyclo[1.1.1]pentane-1-carbonitrile] | 110 |
| Cc1cc(/C=C/C#N)cc(C)c1Oc1nc(NC23CC(C#N)(C2)C3)nc2nn(C3CCOC3)cc12 [Example 233, (R,E)-3-((4-(4-(2-cyanovinyl)-2,6-dimethylphenoxy)-2-(tetrahydrofuran-3-yl)-2H-pyrazolo[3,4-d]pyrimidin-6-yl)amino)bicyclo[1.1.1]pentane-1-carbonitrile] | 158 |
| Cc1cc(/C=C/C#N)cc(C)c1Oc1nc(NC23CC(C#N)(C2)C3)nc2nn(CC(F)F)cc12 [Example 234, (E)-3-((4-(4-(2-cyanovinyl)-2,6-dimethylphenoxy)-2-(2,2-difluoroethyl)-2H-pyrazolo[3,4-d]pyrimidin-6-yl)amino)bicyclo[1.1.1]pentane-1-carbonitrile] | 332 |
| Cc1cc(/C=C/C#N)cc(C)c1Nc1nc(NC23CC(C#N)(C2)C3)nc2[nH]nc(C)c12 [Example 236, 3-[[4-[4-[(E)-2-cyanovinyl]-2,6-dimethyl-anilino]-3-methyl-11H-pyrazolo[3,4-d]pyrimidin-6-yl]amino]bicyclo[1.1.1]pentane-1-carbonitrile] | 217 |
| Cc1cc(/C=C/C#N)cc(C)c1Nc1nc(NC23CC(C#N)(C2)C3)nc2nn(C)cc12 [Example 237, 3-[[4-[4-[(E)-2-cyanovinyl]-2,6-dimethyl-anilino]-2-methyl-pyrazolo[3,4-d]pyrimidin-6-yl]amino]bicyclo[1.1.1]pentane-1-carbonitrile] | 119 |
| Cc1cc(/C=C/C#N)cc(C)c1Oc1nc(NC23CC(C#N)(C2)C3)nc2c1C(C)(O)N(CC(F)F)C2=O (stereo not drawn) [Example 238, (E)-3-((4-(4-(2-cyanovinyl)-2,6-dimethylphenoxy)-6-(2,2-difluoroethyl)-5-hydroxy-5-methyl-7-oxo-6,7-dihydro-5H-pyrrolo[3,4-d]pyrimidin-2-yl)amino)bicyclo[1.1.1]pentane-1-carbonitrile] | 92.4 |
| Cc1cc(/C=C/C#N)cc(C)c1Oc1nc(NC23CC(C#N)(C2)C3)nc2c1[C@@H](C)N(CC(F)F)C2=O [Example 239, (R,E)-3-((4-(4-(2-cyanovinyl)-2,6-dimethylphenoxy)-6-(2,2-difluoroethyl)-5-methyl-7-oxo-6,7-dihydro-5H-pyrrolo[3,4-d]pyrimidin-2-yl)amino)bicyclo[1.1.1]pentane-1-carbonitrile] | 18.5 |
| Cc1cc(/C=C/C#N)cc(C)c1Oc1nc(NC23CC(C#N)(C2)C3)nc2c1[C@H](C)N(CC(F)F)C2=O [Example 240, (S,E)-3-((4-(4-(2-cyanovinyl)-2,6-dimethylphenoxy)-6-(2,2-difluoroethyl)-5-methyl-7-oxo-6,7-dihydro-5H-pyrrolo[3,4-d]pyrimidin-2-yl)amino)bicyclo[1.1.1]pentane-1-carbonitrile] | 35.2 |
| Cc1cc(/C=C/C#N)cc(C)c1Oc1nc(NC23CC(C#N)(C2)C3)nc2c1C1(C)O[C@@H](C)CCN1C2=O (stereo partly drawn) [Example 241, 3-(((6S)-4-(4-((E)-2-cyanovinyl)-2,6-dimethylphenoxy)-4b,6-dimethyl-10-oxo-4b,7,8,10-tetrahydro-6H-pyrimido[5′,4′:3,4]pyrrolo[2,1-b][1,3]oxazin-2-yl)amino)bicyclo[1.1.1]pentane-1-carbonitrile] | 34.8 |

From patent publication US20250333424A1, “ANTIVIRAL COMPOUNDS” (Gilead Sciences, Inc., priority 2024, published 2025)
